A short description of data set [1]: Percent organic elution in reverse-phase HPLC (C18) as lipophilicity readout. Format: physicochemical. The settings on record: Table 16. An excerpt:
The predicted increase in lipophilicity for wyvay (SEQ ID NO:2) was experimentally confirmed by the percent organic (% B) elution during reverse-phase HPLC (RP-HPLC) using a C18 column where solvents A=water+0.1% TFA and B=acetonitrile+0.1% TFA.

Data set [2] addresses T1, His-tagged IDO1 human recombinant protein (Homo sapiens, UniProt P14902).
T1 construct: purchased BPS Biosciences 71182
As to the kind of experiment: IDO1 ELISA (Affinity Assay): sandwich ELISA, biotinylated ligand immobilized on NEUTRAVIDIN plate. The class given is binding. The method, then:
(§1) Protocol: A black 96-well NEUTRAVIDIN® Coated High Binding Capacity plate (15510, Pierce) was coated with 2 μM biotinylated macrocyclic peptide ligand in TBS (25 mM Tris-HCl, 150 mM NaCl, pH 7.6) for 2 h at room temperature. The plate was aspirated and then washed with Wash Buffer (0.05% (v/v) TWEEN® 20 in PBS, 6×). His-tagged IDO1 human recombinant protein (71182, BPS Biosciences) was serially diluted in Wash Buffer (from 200 to 0 nM) and incubated in the designated microwells for 1 h at room temperature. Microwells were aspirated and subsequently washed with Wash Buffer (11×). To detect the bound IDO1 protein, Alkaline Phosphatase (AP)-conjugated Anti-6×HIS TAG® antibody [HIS-1] (ab49746, Abcam) was prepared at 1:10,000 dilution and added to the microwells for 1 h at room temperature. The plate was aspirated and washed with Wash Buffer (5×). ATTOPHOS® AP Fluorescent Substrate System (S1000, Promega) was employed to develop the microwells. Using an excitation wavelength of 430 nm, fluorescent emission at 535 nm was recorded by Beckman Coulter DTX880 photometer. Titration curves were fit using a four-parameter regression curve fitting program to determine EC50 values.
For these assays, a dilution series of His-tagged IDO1 human recombinant protein was captured using the macrocyclic peptide ligands immobilized on a NEUTRAVIDIN®-coated plate. […] The sequences of the peptide ligands are listed in Table 1, where D-amino acids are denoted in lowercase, Me-Trp=1-methyl-L-tryptophan, and F-Phe=4-fluoro-L-phenylalanine. Chemical structures are shown below Table 1.
The D-alanine substituted, biotin-PEG3-modified macrocycles were tested in the IDO1 ELISA (Affinity assay). For these assays, a dilution series of His-tagged IDO1 human recombinant protein was captured using macrocycles immobilized on a NEUTRAVIDIN®-coated plate.
In general terms: In an ELISA, binding on a coated surface is turned into a signal by an enzyme label.

In a further data set the target is murine IDO1 protein (Mus musculus, UniProt P28776). Kind of data set: ELISA against murine IDO1 protein (species cross-reactivity). Format: binding. The settings on record: Table 10; read-out: Mouse IDO EC50. How it is done: as §1
murine IDO1 protein, sequence (P28776 whole entry): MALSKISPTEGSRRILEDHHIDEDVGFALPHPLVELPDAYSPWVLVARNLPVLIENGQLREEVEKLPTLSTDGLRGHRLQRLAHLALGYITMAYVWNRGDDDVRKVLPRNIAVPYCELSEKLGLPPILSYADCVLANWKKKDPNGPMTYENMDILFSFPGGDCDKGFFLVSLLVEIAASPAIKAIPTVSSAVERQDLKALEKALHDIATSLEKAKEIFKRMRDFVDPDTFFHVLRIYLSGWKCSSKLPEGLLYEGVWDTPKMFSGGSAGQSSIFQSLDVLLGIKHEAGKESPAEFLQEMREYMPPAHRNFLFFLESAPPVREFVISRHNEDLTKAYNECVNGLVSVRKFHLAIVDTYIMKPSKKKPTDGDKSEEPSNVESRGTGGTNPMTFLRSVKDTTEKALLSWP
To test for cross-reactivity with murine IDO1, the human IDO1 targeted macrocyclic peptide ligands were assayed against the murine IDO1 protein by ELISA.

A further data set relates to HeLa cells. Kind of data set: Cellular internalization of fluorescent IDO1 ligands (flow cytometry). Format: cell-based. The settings on record: for Internalization of fluorescently labeled peptide, in words: Cy5 or FITC label, flow cytometry. How it is done: Internalization of fluorescently labeled peptides (using Cy5 or FITC) was measured by concentration dependent flow cytometry of unstimulated HeLa cells incubated for one hour with the peptide. […] Internalization was also testing using a cellular inhibition assay, which occurs over 48 hours (rather than the one hour for the flow cytometry assay). Internalized FITC-wyvay (SEQ ID NO:2) at 48 hours was compared to one hour in both unstimulated and stimulated HeLa cells (Table 13). Cell penetration of FITC-wyvay (SEQ ID NO:2) increases with time; more internalized FITC-wyvay (SEQ ID NO:2) can be detected at 48 hours compared to one hour. After one hour, no difference in intracellular staining of FITC-wyvay (SEQ ID NO:2) is observed in unstimulated versus stimulated cells. At 48 hours, there is a slight increase in intracellular FITC-wyvay (SEQ ID NO:2) in stimulated compared to unstimulated cells.
Protocol: HeLa cells were cultured to confluence (˜500,000 cells) in 6-well plates in cell culture medium (DMEM+10% Fetal Bovine Serum (FBS)+1% Penicillin/Streptomycin) or in cell culture medium containing 100 ng/mL IFNγ to stimulate IDO1 expression. The cells were treated with 2 μM or 8 μM macrocyclic IDO1 ligand labeled with either Cy5 or FITC for either 1 hour, 24 hours, or 48 hours as indicated. After treatment, the ligands were aspirated and the cells were washed twice with 1× Phosphate Buffered Saline (PBS). The cells were then harvested by treatment with 0.05% Trypsin-1×EDTA for 5 min at 37° C. Trypsin was quenched by the addition of PBS+2% FBS. The cells in suspension were washed twice in PBS+2% FBS, then resuspended in 500 μL PBS+2% FBS and analyzed for Cy5 or FITC fluorescence using a BD LSR Fortessa X-20 flow cytometer or/and ImageStream X Mark II imaging flow cytometer. Flow Cytometry Standard (fcs) data files were analyzed using FlowJo Software version 10.
Background: In flow cytometry, cells or beads pass a laser one at a time.

[3] abbreviates: 2 μM biotinylated macrocycle immobilized, human IDO1 titrated 200 to 0 nM, read-out: EC50, sandwich ELISA for human IDO1 protein against biotin-PEG3-modified macrocycle.
Where [4] appears, read: Table 10, read-out: Human IDO EC50.

Entries after “also recorded” stand apart in the source; their conditions may differ. Where two headings read alike, the source gives them in different places. Numbered stars: 1 amine (or outer) side, 2 acyl side, 3 side chain; on linkers, the order of the positions; unused ones are H or OH. Bridge positions count the residues as written; N and C are the ends. Square brackets hold non-standard residues; d marks the D form. Triazole bridges read from a SMILES are 1,4-linked. Ends that are not written are not given here. Peptide text beside a SMILES is read from it. * marks the point of attachment. Biotinyl(3aR,4R,6aS) = O=C1N[C@@H]2[C@@H](CS[C@@H]2CCCCC(=O)*)N1; NH(CH2CH2O)5CH2CO = O=C(COCCOCCOCCOCCOCCN[*:1])[*:2]; dTrp(1-Me) = Cn1cc(C[C@@H](N)C(=O)O)c2ccccc21; X1 = O=C(CSc1nonc1/C(=N/O)Nc1ccc(F)c(Br)c1)*; Trp(1-Me) = Cn1cc(C[C@H](N)C(=O)O)c2ccccc21; Lys(N3) = [N-]=[N+]=NCCCC[C@H](N)C(=O)O; Phe(4-F) = N[C@@H](Cc1ccc(F)cc1)C(=O)O; dPhe(4-F) = N[C@H](Cc1ccc(F)cc1)C(=O)O; dNMeV = CN[C@@H](C(=O)O)C(C)C; AEEEA = NCCOCCOCCOCC(=O)O; Pra = C#CC[C@H](N)C(=O)O; βAla = NCCC(=O)O

T1 sequence (P14902 whole entry): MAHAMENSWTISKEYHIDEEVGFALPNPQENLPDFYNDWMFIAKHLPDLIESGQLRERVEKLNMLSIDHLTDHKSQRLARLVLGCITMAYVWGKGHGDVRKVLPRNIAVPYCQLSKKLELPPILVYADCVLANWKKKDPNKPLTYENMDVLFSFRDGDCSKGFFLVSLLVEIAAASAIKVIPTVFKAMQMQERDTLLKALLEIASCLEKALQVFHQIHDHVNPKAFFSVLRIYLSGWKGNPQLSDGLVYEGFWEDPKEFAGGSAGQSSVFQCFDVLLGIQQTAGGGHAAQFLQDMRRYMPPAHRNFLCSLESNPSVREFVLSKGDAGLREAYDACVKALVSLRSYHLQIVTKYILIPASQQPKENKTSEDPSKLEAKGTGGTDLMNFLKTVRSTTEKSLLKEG

With `CC(C)[C@H](NC(=O)CCNC(=O)CSc1nonc1/C(=N/O)Nc1ccc(F)c(Br)c1)C(=O)N[C@H](C(=O)N[C@H](C(=O)N[C@H]1Cc2cn(nn2)CCCC[C@@H](C(N)=O)NC(=O)[C@@H](Cc2ccc(O)cc2)NC(=O)[C@@H](C)NC(=O)[C@@H](C(C)C)NC(=O)[C@@H](Cc2ccc(O)cc2)NC(=O)[C@@H](Cc2c[nH]c3ccccc23)NC1=O)C(C)C)C(C)C` [Inh-BA-(Val)3-wyvay] ({X1-βAla}-VVV[Pra][dW][dY][dV][dA][dY][Lys(N3)]-NH2; triazole 4-10), in data set [1], the “% MeCN” value is given as 45.12%.

Consider `CC(C)[C@H]1NC(=O)[C@@H](Cc2ccc(O)cc2)NC(=O)[C@@H](Cc2c[nH]c3ccccc23)NC(=O)[C@@H](NC(=O)COCCOCCOCCOCCOCCNC(=O)CCNC(=O)CSc2nonc2/C(=N/O)Nc2ccc(F)c(Br)c2)Cc2cn(nn2)CCCC[C@@H](C(N)=O)NC(=O)[C@@H](Cc2ccc(O)cc2)NC(=O)[C@@H](C)NC1=O` [Inh-BA-PEG5-wyvay] ({X1-βAla}-[NH(CH2CH2O)5CH2CO][Pra][dW][dY][dV][dA][dY][Lys(N3)]-NH2; triazole 2-8; N-terminus and C-terminus assumed), for which the “% MeCN” value in data set [1] was 46.90%.

The EC50 is the concentration giving half of the maximal effect. On to `Cn1cc(C[C@H]2NC(=O)[C@@H](Cc3ccccc3)NC(=O)[C@@H](CCCNC(=N)N)NC(=O)[C@@H](Cc3ccccc3)NC(=O)[C@@H](NC(=O)COCCOCCOCCNC(=O)CCCC[C@H]3SC[C@H]4NC(=O)N[C@H]43)Cc3cn(nn3)CCCC[C@@H](C(N)=O)NC(=O)[C@@H](CO)NC2=O)c2ccccc21` [frf(Me-Trp)s, biotin-PEG3-Cy(frf(Me-Trp)s)] ({Biotinyl(3aR,4R,6aS)-AEEEA}-[Pra][dF][dR][dF][dTrp(1-Me)][dS][Lys(N3)]-NH2; triazole 1-7), for which the EC50 in data set [2] (setting [3]) was determined as 20 nM; in data set [2] (Example 9, read-out: Binding affinity (EC50) of prioritized Epitope 1 hits), 20 nM; in data set [2] (setting [4]) it was 18 ± 2 nM; at murine IDO1 protein, 36 ± 16 nM.

As to `CC(C)C[C@H]1NC(=O)[C@@H](CC(N)=O)NC(=O)[C@@H](NC(=O)COCCOCCOCCNC(=O)CCCC[C@H]2SC[C@H]3NC(=O)N[C@H]32)Cc2cn(nn2)CCCC[C@@H](C(N)=O)NC(=O)[C@@H](Cc2ccc(F)cc2)NC(=O)[C@@H](Cc2cn(C)c3ccccc23)NC(=O)[C@@H](Cc2ccccc2)NC1=O` [nlf(Me-Trp)(F-Phe), biotin-PEG3-Cy(nlf(Me-Trp)(F-Phe))] ({Biotinyl(3aR,4R,6aS)-AEEEA}-[Pra][dN][dL][dF][dTrp(1-Me)][dPhe(4-F)][Lys(N3)]-NH2; triazole 1-7), the EC50 stood at 20 nM in data set [2] (setting [3]); 19 ± 1 nM in data set [2] (setting [4]); 44 nM in data set [2] (binding analysis of VHL-linked Epitope 2 ligand, read-out: EC50); 89 ± 26 nM at murine IDO1 protein.

For the molecule `CC(C)C[C@H]1NC(=O)[C@@H](CC(N)=O)NC(=O)[C@@H](NC(=O)COCCOCCOCCNC(=O)CCCC[C@H]2SC[C@H]3NC(=O)N[C@H]32)Cc2cn(nn2)CCCC[C@@H](C(N)=O)NC(=O)[C@@H](CCCNC(=N)N)NC(=O)[C@@H](Cc2cn(C)c3ccccc23)NC(=O)[C@@H](Cc2c[nH]c3ccccc23)NC1=O` [nlw(Me-Trp)r, biotin-PEG3-Cy(nlw(Me-Trp)r)] ({Biotinyl(3aR,4R,6aS)-AEEEA}-[Pra][dN][dL][dW][dTrp(1-Me)][dR][Lys(N3)]-NH2; triazole 1-7), the half-maximal effective concentration (EC50) in data set [2] (setting [3]) came to 43 nM; in data set [2] (setting [4]), 51 ± 17 nM; on murine IDO1 protein, 48 nM.

For the molecule `NC(=O)[C@@H]1CCCCn2cc(nn2)C[C@H](NC(=O)COCCOCCOCCNC(=O)CCCC[C@H]2SC[C@H]3NC(=O)N[C@H]32)C(=O)N[C@H](CO)C(=O)N2CCC[C@@H]2C(=O)N[C@H](Cc2c[nH]c3ccccc23)C(=O)N[C@H](Cc2c[nH]c3ccccc23)C(=O)N[C@H](Cc2ccc(F)cc2)C(=O)N1` [spww(F-Phe), biotin-PEG3-Cy(spww(F-Phe))] ({Biotinyl(3aR,4R,6aS)-AEEEA}-[Pra][dS][dP][dW][dW][dPhe(4-F)][Lys(N3)]-NH2; triazole 1-7), the EC50 in data set [2] (setting [3]) is 65 nM; in data set [2] (setting [4]), 85 ± 18 nM; on murine IDO1 protein, 44 nM.

As to `N=C(N)NCCC[C@H]1NC(=O)[C@@H](Cc2ccc(O)cc2)NC(=O)[C@@H](Cc2c[nH]c3ccccc23)NC(=O)[C@@H](NC(=O)COCCOCCOCCNC(=O)CCCC[C@H]2SC[C@H]3NC(=O)N[C@H]32)Cc2cn(nn2)CCCC[C@@H](C(N)=O)NC(=O)[C@@H](Cc2ccc(O)cc2)NC1=O` [wyry, Biotin-PEG3-Cy(wyry)] ({Biotinyl(3aR,4R,6aS)-AEEEA}-[Pra][dW][dY][dR][dY][Lys(N3)]-NH2; triazole 1-6), the “Binding to human IDO1 by ELISA, in words” value in data set [2] (alanine scan, 3-mer/4-mer and substituted variants compared with parent macrocycle) is reported as “best affinity among the 4-mer macrocycles; also recorded: superior binding affinity”. Also, in the data set with HeLa cells, the “Internalization of fluorescently labeled peptide, in words” value (“Internalization” for short) was “Concentration dependent internalization”.

As for “Cy5-nlf(Me-Trp)(F-Phe): Cy5 labeled Epitope 2 macrocycle nlf(Me-Trp)(F-Phe) ([dN][dL][dF][Trp(1-Me)][Phe(4-F)]; triazole (positions not given here); not fully specified (N-terminus, C-terminus, bridges); printed as Cy5-nlf(Me-Trp)(F-Phe); also: Cy5 label, macrocycle, closure not given here)”, in the data set with HeLa cells, the “Internalization” value is “detected by flow cytometry and imaging”.

Turning to “FITC-nlf(Me-Trp)(F-Phe): FITC labeled Epitope 2 macrocycle nlf(Me-Trp)(F-Phe) ([dN][dL][dF][Trp(1-Me)][Phe(4-F)]; triazole (positions not given here); also: FITC label, site not given here, macrocycle by click between N-terminal Pra and C-terminal Az4, not in chain)”, the “Internalization” value in the data set with HeLa cells was “reduced but detectable and concentration dependent”.

Regarding “FITC-wyvay: FITC labeled wyvay macrocycle ([dW][dY][dV][dA][dY]; triazole (positions not given here); also: FITC label, site not given here, macrocycle by click between N-terminal Pra and C-terminal Az4, not in chain)”, the MFIR in the data set on HeLa cells (stimulated HeLa cells, 1 hour) worked out at 2.11; in the data set on HeLa cells (stimulated HeLa cells, 48 hours), 5.27; in the data set on HeLa cells (unstimulated HeLa cells, 1 hour), 2.27; in the data set on HeLa cells (unstimulated HeLa cells, 48 hours), 4.91.

“wy(N-Me-v)ay: wyvay peptide ligand with N-methylated valine (third N—H) ([Pra][dW][dY][dNMeV][dA][dY]; triazole N-C; not fully specified (C-terminus); printed as wy(N-Me-v)ay)”: in the data set on HeLa cells, the “Internalization” value is “much higher than wyvay”.

The values are drawn from US12216122B2, “Compositions and methods relating to detection, inhibition, and imaging of indoleamine 2,3-dioxygenase 1 (IDO1)” (Regeneron Pharmaceuticals, Inc., priority 2019, dated 2025).
